Source: ChEMBL document CHEMBL6177981, “Bardoxolone Derivatives as Novel Pseudo-Natural Necroptosis Inhibitors by Destabilizing HSP90 Client Proteins” (J Med Chem, 2025)
Active and inactive are the calls of the source. No cut-off for these calls is given here.

Experiments:
[1] = Acute toxicity in male C57BL/6J mouse assessed as effect on AST level at 2 g/Kg, IG measured after 72 hrs; conditions: in vivo, po, 2000 mg/kg
[2] = Acute toxicity in male C57BL/6J mouse assessed as hemorrhage in liver at 2 g/Kg, IG measured after 72 hrs by H and E staining based analysis; type: tissue-based; conditions: in vivo, po, 2000 mg/kg
[3] = molecular target: Heat shock protein HSP90 (Homo sapiens) (UniProt P07900+P08238); test: Inhibition of HSP90 in TSZ-induced human HT-29 cells assessed as reduction in EGFR protein level preincubated with compound followed by Z-VAD-FMK, SM164 and TNFalpha stimulation and measured after 6 hrs by Western blot analysis; type: cell-based; conditions: dose 0.625-10 µM
[4] = Acute toxicity in male C57BL/6J mouse assessed as effect on creatinine level at 2 g/Kg, IG measured after 72 hrs; conditions: in vivo, po, 2000 mg/kg
[5] = Acute toxicity in male C57BL/6J mouse assessed as inflammatory cell infiltration in liver at 2 g/Kg, IG measured after 72 hrs by H and E staining based analysis; type: tissue-based; conditions: in vivo, po, 2000 mg/kg
HT-29 [6] = test: Anti-apoptotic activity in TS-induced human HT-29 cells assessed as increase in cell viability at 1.25 to 20 uM preincubated with compound followed by TNF-alpha and SM164 addition and measured after 36 hrs by CellTiter-Lumi luminescent cell viability assay; type: functional, cell-based; conditions: dose 1.25-20 µM
Mus musculus [7] = test: (§1) Anti-necroptotic activity in TNFalpha/Z-VAD-FMK induced SIRS male C57BL/6J mouse model assessed as reduction in IL6 in kidney at 5 to 10 mg/kg, po pre-administered with compound via gavage for 2 hrs followed by […] of Z-VAD-FMK stimulation for 15 mins with subsequent TNF-alpha stimulation for 1 hrs and re-current […] of Z-VAD-FMK stimulation and measured after 8 hrs post SIRS induction by ELISA; type: functional, organism-based; conditions: dose 5-10 mg/kg, time 10.0 hrs
[8] = Tmax in Sprague-Dawley rat at 10 mg/kg, IG measured after 24 hrs by LC-MS/MS analysis; type: ADME, organism-based; conditions: in vivo, po
HT-29 [9] = test: Downregulation of RIPK1 protein level in human HT-29 cells at 6 uM preincubated with Z-VAD-FMK for 2 hrs followed by compound addition and measured after 9 hrs by Western blot analysis; type: functional, cell-based
[10] = Acute toxicity in male C57BL/6J mouse assessed as inflammatory cell infiltration in kidney at 2 g/Kg, IG measured after 72 hrs by H and E staining based analysis; type: tissue-based; conditions: in vivo, po, 2000 mg/kg
HT-29 [11] = test: Downregulation of RIPK3 protein level in human HT-29 cells at 6 uM preincubated with NH4Cl for 2 hrs followed by compound addition and measured after 9 hrs by Western blot analysis; type: functional, cell-based
[12] = molecular target: T1, Receptor-interacting serine/threonine-protein kinase 1 (Homo sapiens) (UniProt Q13546); test: Inhibition of RIPK1 phosphorylation at S166 residue in TSZ-induced human HT-29 cells at 10 uM preincubated with compound followed by Z-VAD-FMK, SM164 and TNFalpha stimulation and measured after 6 hrs by Western blot analysis; type: cell-based
T1 sequence (whole entry): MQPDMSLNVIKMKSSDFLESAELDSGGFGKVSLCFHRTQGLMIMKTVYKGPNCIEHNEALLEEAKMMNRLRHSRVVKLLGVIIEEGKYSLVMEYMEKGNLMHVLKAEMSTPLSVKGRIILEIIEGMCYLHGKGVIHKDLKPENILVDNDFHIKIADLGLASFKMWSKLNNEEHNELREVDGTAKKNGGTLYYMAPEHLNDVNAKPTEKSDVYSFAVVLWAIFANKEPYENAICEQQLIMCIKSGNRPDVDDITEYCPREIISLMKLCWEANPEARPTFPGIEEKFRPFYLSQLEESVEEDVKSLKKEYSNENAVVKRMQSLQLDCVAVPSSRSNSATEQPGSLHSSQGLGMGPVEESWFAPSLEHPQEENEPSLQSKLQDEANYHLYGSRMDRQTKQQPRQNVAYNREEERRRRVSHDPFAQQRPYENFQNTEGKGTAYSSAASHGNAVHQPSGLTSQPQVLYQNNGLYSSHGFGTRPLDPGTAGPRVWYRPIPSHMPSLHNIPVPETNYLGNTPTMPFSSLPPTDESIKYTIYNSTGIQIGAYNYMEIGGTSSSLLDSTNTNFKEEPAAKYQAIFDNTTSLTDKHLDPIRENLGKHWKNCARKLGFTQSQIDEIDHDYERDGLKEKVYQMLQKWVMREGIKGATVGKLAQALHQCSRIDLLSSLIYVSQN

HT-29 [13] = test: Downregulation of MLKL protein level in human HT-29 cells at 3 to 6 uM incubated for 9 hrs by Western blot analysis; type: functional, cell-based; conditions: dose 3-6 µM
HT-29 [14] = test: Downregulation of EGFR expression in human HT-29 cells at 0.75 to 6 uM incubated for 9 hrs by Western blot analysis; type: functional, cell-based; conditions: dose 0.75-6 µM
[15] = Acute toxicity in male C57BL/6J mouse assessed as structural changes in kidney at 2 g/Kg, IG measured after 72 hrs by H and E staining based analysis; type: tissue-based; conditions: in vivo, po, 2000 mg/kg
[16] = molecular target: T2, Mixed lineage kinase domain-like protein (Homo sapiens) (UniProt Q8NB16); test: Inhibition of MLKL phosphorylation at S358 residue in TSZ-induced human HT-29 cells at 10 uM preincubated with compound followed by Z-VAD-FMK, SM164 and TNFalpha stimulation and measured after 6 hrs by Western blot analysis; type: cell-based
T2 sequence (whole entry): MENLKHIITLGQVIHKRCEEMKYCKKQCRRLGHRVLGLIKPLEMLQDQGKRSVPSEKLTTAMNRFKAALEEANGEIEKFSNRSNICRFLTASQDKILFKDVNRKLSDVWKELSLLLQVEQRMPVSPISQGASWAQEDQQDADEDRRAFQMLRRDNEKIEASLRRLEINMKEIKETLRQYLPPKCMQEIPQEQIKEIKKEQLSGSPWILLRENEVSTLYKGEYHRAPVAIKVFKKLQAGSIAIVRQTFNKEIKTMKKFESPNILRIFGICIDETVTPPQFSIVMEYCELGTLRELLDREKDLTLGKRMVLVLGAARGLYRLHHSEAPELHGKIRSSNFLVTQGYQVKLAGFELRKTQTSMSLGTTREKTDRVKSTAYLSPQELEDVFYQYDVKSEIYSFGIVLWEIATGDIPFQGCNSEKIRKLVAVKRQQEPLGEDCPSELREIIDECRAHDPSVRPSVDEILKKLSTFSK

[17] = Acute toxicity in male C57BL/6J mouse assessed as structural changes in heart at 2 g/Kg, IG measured after 72 hrs by H and E staining based analysis; type: tissue-based; conditions: in vivo, po, 2000 mg/kg
Mus musculus [18] = test: as §1, with “IL-1beta” for “IL6”, “intestine” for “kidney”; type: functional, organism-based; conditions: dose 5-10 mg/kg, time 10.0 hrs
[19] = AUC (0 to 24 hrs) in Sprague-Dawley rat at 10 mg/kg, IG measured after 24 hrs by LC-MS/MS analysis; type: ADME, organism-based; conditions: in vivo, po
[20] = Acute toxicity in male C57BL/6J mouse assessed as inflammatory cell infiltration in spleen at 2 g/Kg, IG measured after 72 hrs by H and E staining based analysis; type: tissue-based; conditions: in vivo, po, 2000 mg/kg
[21] = Acute toxicity in male C57BL/6J mouse assessed as structural changes in stomach at 2 g/Kg, IG measured after 72 hrs by H and E staining based analysis; type: tissue-based; conditions: in vivo, po, 2000 mg/kg

With `Cn1ccc(-c2ccc(NC(=O)[C@]34CCC(C)(C)C[C@H]3[C@H]3C(=O)C=C5[C@@]6(C)C=C(C#N)C(=O)C(C)(C)[C@@H]6CC[C@@]5(C)[C@]3(C)CC4)cc2)n1` the Activity [1] was “Non-toxic”, the Activity [2] was “Non-toxic” and the inhibition [3] was “Dose-dependent-effect”. The Activity [4] was “Non-toxic”, the Activity [5] was “Non-toxic” and the Activity (HT-29 [6]) was “inactive”. The Activity (Mus musculus [7]) was “Active”, the Tmax [8] was 14 h and the Activity (HT-29 [9]) was “Active”. The Activity [10] was “Non-toxic”, the Activity (HT-29 [11]) was “Active” and the inhibition [12] was “Active”. The Activity (HT-29 [13]) was “Active; Significant Effect Observed”, the Activity (HT-29 [14]) was “Active” and the Activity [15] was “Non-toxic”. For the same compound, the inhibition [16] was “Active”, the Activity [17] was “Non-toxic” and the Activity (Mus musculus [18]) was “Active”. For the same compound, the AUC(0-t) at 24 h [19] was 1080 ng·h/mL, the Activity [20] was “Non-toxic” and the Activity [21] was “Non-toxic”.
